# Literature values in US8198303B2, “Methods of use and compositions for the diagnosis and treatment of infectious diseases” (Sequella, Inc., priority 2002, dated 2012).
# System: M. tuberculosis
# Settings: background statement on ethambutol
smiles,measurement,value
"CC[C@@H](CO)NCCN[C@@H](CC)CO [ethambutol, Ethambutol]",Minimum Inhibition Concentration (MIC),about 5 μg/ml
